Data: US12404276B2, “Substituted pyrrolo[3,4-c]pyrazoles for treating gastric acid-related diseases” (SHANGHAI MEDICILON INC., priority 2019, dated 2025)

Target: T1, H+/K+ ATPase (Oryctolagus cuniculus, UniProt P27112)
T1 construct: The stomach tissue of the rabbit was separated; from tissue; host or cells: rabbit stomach fundus mucosa, microsomal/Ficoll membrane fraction
Experiment: Determination of compounds' inhibition of H+/K+ ATPase enzyme activity (malachite green, OD 620 nm)
Type: biochemical
Conditions: enzyme extracted from rabbit stomach mucosa; pH 6.5; 500 μM ATP; 37° C.; read-out: IC50(μM) inhibition rate (IC50) of H+/K+ ATPase enzyme activity
From the text: Test Example: Determination of Compounds' Inhibition of H+/K+ ATPase Enzyme Activity
The following experiment is used to determine the inhibitory effect of the compound of the present invention on the H+/K+ ATPase enzyme activity.
• Plate reader: SpectraMax M5(MD) • Malachite Green (Sigma Aldrich, 213020-25G) • Ammonium molybdate (Sigma Aldrich, 277908-20G) • ATP (Sigma Aldrich, A1852-1VL). 2. Buffer Preparation • Enzyme working solution: titrating the enzyme, diluting the enzyme with buffer solution 1, and taking 5 μl of the diluted solution into 50 μl reaction system • ATP solution: 100 mM ATP was diluted to 5 mM with no K+ buffer, and 5 μl of the diluted solution was added to the 50 μl reaction system, that is, the final concentration of ATP was 500 μM MLG color development liquid: 0.12% MLG, 7.5% ammonium molybdate, 11% Tween-20 was mixed as 100:25:2, and adding 15 μl of the mixture into each well during detection. • Buffer 1: 50 mM Tris-HCl pH 6.5, 5 mM magnesium chloride (magnesium chloride), 10 μM valinomycin (valinomycin) • Buffer 2: 50 mM Tris-HCl pH 6.5, 5 mM magnesium chloride (magnesium chloride), 10 μM valinomycin (valinomycin), 20 mM KCl • Homogenization buffer: 10 mmol/L Tris-HCl, pH 6.8, 0.25 M sucrose (sucrose), 1 mmol/LEDTA 7.5% Ficoll layering solution: homogenization buffer+7.5% (W/W) (Ficoll 400). 3. Experimental Steps […] Enzyme Extraction • (1) The stomach tissue of the rabbit was separated, and the blood was washed with tap water, food residue. • (2) The fundus portion was thoroughly washed with pre-cooled NaCl solution to remove surface mucus. • (3) The stripped mucosa was filled into a sample bag or a 50 ml centrifuge tube, and quickly freezing in a liquid nitrogen tank. • (4) The tissue was removed, minced with surgical scissors, and a pre-cooled homogenization buffer (4 ml/g tissue) was added and homogenized in a tissue homogenizer for 2 to 10 minutes. • (5) After homogenization, if there were larger tissue particles, they could be removed by centrifugation (600 g, 10 min), and then the supernatant was transferred to a clean centrifuge tube. After centrifugation at 20000 g for 30 minutes, then the supernatant was transferred to a clean centrifuge tube at 100000 g for 90 minutes, and the precipitate was collected. • (6) Resuspending the precipitate with homogenization buffer, blowing uniformly, adding 7.5% Ficoll layering solution at equal ratio, centrifuging at 100000 g for 90 minutes, and collecting the precipitate. • (7) Resuspending the precipitate with homogenization buffer, blowing uniformly, and the protein concentration was measured by Bradford. Freezing in tubes at −80° C. for later use. 3.2. H+/K+ ATPase Activity Experiment • (1) Adding 35 μl of reaction buffer to each experimental well, and then adding […]. • (2) Adding 5 μl buffer 1 containing 10% DMSO to the whole enzyme and buffer well. • (3) Adding 5 μl of 10× compound working solution to the compound well and mixing well. • (4) Adding 5 μl of buffer 1 to the buffer well. • (5) Adding 5 μl of 10× enzyme working solution to the remaining wells, mixing and incubating at 37° C. for 30 minutes. • (6) Adding 5 μl of 10×ATP working solution to all experimental wells, mixing and incubating at 37° C. for 20 min. • (7) Adding 15 μl MLG chromogenic solution to all experimental wells, and uniformly mixing and incubating at room temperature for 5-30 min. • (8) The reading number of 620 nm was detected by an M5 instrument. 4. Data Analysis
The inhibition rate is calculated with the following formula: Inhibition rate (IC50)=[OD (sample well)−OD (full enzyme well containing potassium chloride)]/[(OD (full enzyme well containing potassium chloride)−(OD (full enzyme well without potassium chloride)]×100% 5. Experimental Results

T1 sequence (P27112 whole entry): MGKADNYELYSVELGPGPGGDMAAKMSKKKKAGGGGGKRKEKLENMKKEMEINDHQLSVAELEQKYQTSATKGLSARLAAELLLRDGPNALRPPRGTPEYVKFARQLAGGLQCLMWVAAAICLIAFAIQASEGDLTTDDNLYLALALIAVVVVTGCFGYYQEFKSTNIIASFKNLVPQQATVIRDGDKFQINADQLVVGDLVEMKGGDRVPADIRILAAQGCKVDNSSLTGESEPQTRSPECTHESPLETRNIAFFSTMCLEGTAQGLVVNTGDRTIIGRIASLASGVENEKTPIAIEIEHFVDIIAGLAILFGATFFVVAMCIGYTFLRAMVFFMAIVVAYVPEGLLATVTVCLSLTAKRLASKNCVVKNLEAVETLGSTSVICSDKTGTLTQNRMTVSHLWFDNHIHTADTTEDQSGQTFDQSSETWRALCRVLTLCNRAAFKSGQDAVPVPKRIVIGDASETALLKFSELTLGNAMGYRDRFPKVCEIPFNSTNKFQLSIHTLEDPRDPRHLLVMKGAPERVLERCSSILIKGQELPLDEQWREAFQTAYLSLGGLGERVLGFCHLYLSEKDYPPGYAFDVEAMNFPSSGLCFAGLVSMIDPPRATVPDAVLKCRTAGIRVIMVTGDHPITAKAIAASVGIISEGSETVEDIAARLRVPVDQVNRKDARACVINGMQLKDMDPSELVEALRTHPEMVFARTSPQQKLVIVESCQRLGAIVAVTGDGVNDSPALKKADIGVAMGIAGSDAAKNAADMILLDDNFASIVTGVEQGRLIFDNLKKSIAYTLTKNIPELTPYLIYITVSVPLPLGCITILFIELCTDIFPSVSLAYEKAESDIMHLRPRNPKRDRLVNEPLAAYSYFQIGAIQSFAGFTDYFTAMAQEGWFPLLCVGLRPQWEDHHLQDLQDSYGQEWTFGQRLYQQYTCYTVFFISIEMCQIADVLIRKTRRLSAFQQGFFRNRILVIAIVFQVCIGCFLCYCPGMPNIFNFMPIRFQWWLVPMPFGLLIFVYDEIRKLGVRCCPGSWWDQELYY
T1 sequence (P18597 whole entry partner): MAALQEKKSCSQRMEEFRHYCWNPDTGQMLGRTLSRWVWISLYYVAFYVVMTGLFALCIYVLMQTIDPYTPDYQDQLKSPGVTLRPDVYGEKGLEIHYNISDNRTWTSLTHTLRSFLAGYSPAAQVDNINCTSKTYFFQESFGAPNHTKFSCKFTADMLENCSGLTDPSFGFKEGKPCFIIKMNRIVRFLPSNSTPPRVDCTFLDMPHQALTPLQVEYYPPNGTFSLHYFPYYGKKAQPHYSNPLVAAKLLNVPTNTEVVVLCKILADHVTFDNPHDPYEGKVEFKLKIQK

Row | SMILES | IC50 [µM]
1 | CN1Cc2nn(Cc3ccc(O)c(C4=CCCOC4)c3)c(-c3ccccc3F)c2C1 [Example 2, 2-(5,6-dihydro-2H-pyran-3-yl)-4-((3-(2-fluorophenyl)-5-methyl-5,6-dihydropyrrolo[3,4-c]pyrazole-2(4H)-yl)methyl)phenol] | 0.0559
2 | CN1Cc2nn(Cc3cccc(C4=CCOCC4)c3)c(-c3ccccc3F)c2C1 [Example 5, 2-(3-(3,6-dihydro-2H-pyran-4-yl)benzyl)-3-(2-fluorophenyl)-5-methyl-2,4,5,6-Tetrahy dropyrrolo[3,4-C]pyrazole] | 0.0883
3 | CN1Cc2nn(Cc3cc(O)cc(C4=CCOCC4)c3)c(-c3ccccc3F)c2C1 [Example 8, 3-(3,6-dihydro-2H-pyran-4-yl)-5-((3-(2-fluorophenyl)-5-methyl-5,6-dihydropyrrolo[3,4-c]pyrazole-2(4H)-yl)methyl)phenol] | 0.0811
4 | CN1Cc2nn(Cc3cc(Cl)cc(C4=CCOCC4)c3)c(-c3ccccc3F)c2C1 [Example 6, 2-(3-chloro-5-(3,6-dihydro-2H-pyran-4-yl)benzyl)-3-(2-fluorophenyl)-5-methyl-2,4,5,6-tetrahydropyrrolo[3,4-c]pyrazole] | 0.121
5 | CN1Cc2nn(Cc3cccc(C4=CCNCC4)c3)c(-c3ccccc3F)c2C1 [Example 9, 3-(2-fluorophenyl)-5-methyl-2-(3-(1,2,3,6-tetrahydropyridin-4-yl)benzyl)-2,4,5,6-tetrahydropyrrolo[3,4-C]pyrazole] | 0.208
6 | CN1Cc2nn(Cc3cc(O)cc(C4=CCCOC4)c3)c(-c3ccccc3F)c2C1 [Example 4, 3-(5,6-dihydro-2H-pyran-3-yl)-5-((3-(2-fluorophenyl)-5-methyl-5,6-dihydropyrrolo[3,4-c]pyrazole-2(4H)-yl)methyl)phenol] | 0.113
7 | CN1Cc2nn(Cc3ccc(F)c(C4=CCOCC4)c3)c(-c3ccccc3F)c2C1 [Example 7, 2-(3-(3,6-dihydro-2H-pyran-4-yl)-4-fluorobenzyl)-3-(2-fluorophenyl)-5-methyl-2,4,5,6-tetrahydropyrrolo[3,4-c]pyrazole] | 0.114
8 | CN1Cc2nn(Cc3cccc(C4=CCOCC4)c3)c(-c3cccnc3F)c2C1 [Example 10, 2-(3-(3,6-dihydro-2H-pyran-4-yl)benzyl)-3-(2-fluoropyridin-3-yl)-5-methyl-2,4,5,6-tetrahydropyrrolo[3,4-c]pyrazole] | 0.769
9 | CN1Cc2nn(Cc3cccc(C4=CCCOC4)c3)c(-c3ccccc3F)c2C1 [Example 3, 2-(3-(5,6-dihydro-2H-pyran-3-yl)benzyl)-3-(2-fluorophenyl)-5-methyl-2,4,5,6-tetrahydropyrrolo[3,4-C]pyrazole] | 0.197
10 | CN1Cc2nn(Cc3ccc(O)c(C4=CCOCC4)c3)c(-c3ccccc3F)c2C1 [Example 1, 2-(3,6-dihydro-2H-pyran-4-yl)-4-((3-(2-fluorophenyl)-5-methyl-5,6-dihydropyrrolo[3,4-c]pyrazole-2(4H)-yl)methyl)phenol] | 0.233
